Data from patent US10208030B2, “GPR119 agonist compounds” (Mankind Pharma Ltd., priority 2016, dated 2019).

Biological target: T1, hGPR119 (Homo sapiens, UniProt Q8TDV5)
T1 construct: expressed in transfected cells; host or cells: CHO cells (CHO-hGPR119)
T1 sequence (Q8TDV5 1-335): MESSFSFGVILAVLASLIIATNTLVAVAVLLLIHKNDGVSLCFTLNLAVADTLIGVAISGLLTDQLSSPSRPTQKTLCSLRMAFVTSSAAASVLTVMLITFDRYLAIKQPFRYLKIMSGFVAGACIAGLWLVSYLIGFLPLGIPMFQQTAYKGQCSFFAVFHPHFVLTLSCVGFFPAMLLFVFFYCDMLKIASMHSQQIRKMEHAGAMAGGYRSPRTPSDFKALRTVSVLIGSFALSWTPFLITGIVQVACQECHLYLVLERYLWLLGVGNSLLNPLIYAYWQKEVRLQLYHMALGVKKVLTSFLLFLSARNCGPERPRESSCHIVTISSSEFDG
Test: In vitro cyclic AMP assay (Cisbio HTRF) in CHO-hGPR119 cells
Format: cell-based
Settings: 1 h, cAMP, 1 μM, 60 min, read-out: Induction (% induction at 1 μM)
Protocol: cAMP measurements were done using Cisbio dynamic 2 HTRF kit according to the manufacturer's protocol. Briefly, CHO-hGPR119 cells were plated at a cell density of 5000 cells/well/5 μl into a white small volume 384 well plate. The final concentrations of IBMX and DMSO used were 1 mM and 0.5% respectively. Cells were treated with various concentrations of the test compound for 60 min at room temperature. Cells were lysed by buffer containing Anti-cAMP antibody and d2-cAMP reagents and incubated for 1 hour at room temperature. HTRF was measured at 337 nm excitation and emission wavelengths of 665 nm and 620 nm on a microplate reader (Flurostar, BMG Labtech). Graphpad prism software was utilized for EC50 determinations.

| activation at 1 µM | Compound |
| --- | --- |
| 75% | CC(C)c1noc(N2CCC(C(C)Oc3nn4cc(-c5ccncc5F)nc4s3)CC2)n1 (stereo in doubt) [Compound 1064, (S)-5-(4-(1-((6-(3-fluoropyridin-4-yl)imidazo[2,1-b][1,3,4]thiadiazol-2-yl)oxy)ethyl)piperidin-1-yl)-3-isopropyl-1,2,4-oxadiazole] |
| 74% | CCc1cnc(N2CCC(C(C)Oc3nn4cc(-c5ccncc5)nc4s3)CC2)nc1 (stereo in doubt) [Compound 1080, 2-((S)-1-(1-(5-ethylpyrimidin-2-yl)piperidin-4-yl)ethoxy)-6-(pyridin-4-yl)imidazo[2,1-b][1,3,4]thiadiazole] |
| 72% | CC(C)c1noc(N2CCC(C(C)Oc3nn4cc(-c5ccc(C(F)(F)F)nc5)nc4s3)CC2)n1 (stereo in doubt) [Compound 1084, 2-((S)-1-(1-(3-isopropyl-1,2,4-oxadiazol-5-yl)piperidin-4-yl)ethoxy)-6-(6-(trifluoromethyl)pyridin-3-yl)imidazo[2,1-b][1,3,4]thiadiazole] |
| 84% | CCc1cnc(N2CCC(C(C)Oc3nn4cc(-c5ccc(S(C)(=O)=O)nc5F)nc4s3)CC2)nc1 (stereo in doubt) [Compound 1102, 2-((S)-1-(1-(5-ethylpyrimidin-2-yl)piperidin-4-yl)ethoxy)-6-(2-fluoro-6-(methylsulfonyl)pyridin-3-yl)imidazo[2,1-b][1,3,4]thiadiazole] |
| 3% | CC(C)c1noc(C2CCN(c3nsnc3Oc3ccc(-n4cnnn4)cc3)CC2)n1 [Compound 1003, 5-(1-(4-(4-(1H-tetrazol-1-yl)phenoxy)-1,2,5-thiadiazol-3-yl)piperidin-4-yl)-3-isopropyl-1,2,4-oxadiazole] |
| 6% | CCc1cnc(N2CCC(c3nsnc3-c3ccc(S(C)(=O)=O)cc3)CC2)nc1 [Compound 1004, 3-(1-(5-ethylpyrimidin-2-yl)piperidin-4-yl)-4-(4-(methylsulfonyl)phenyl)-1,2,5-thiadiazole] |
| 2% | CCc1cnc(N2CC=C(c3nsnc3Oc3ccc(-n4cnnn4)cc3)CC2)nc1 [Compound 1005, 3-(4-(1H-tetrazol-1-yl)phenoxy)-4-(1-(5-ethylpyrimidin-2-yl)-1,2,3,6-tetrahydropyridin-4-yl)-1,2,5-thiadiazole] |
| 9% | CC(C)c1noc(C2CCN(c3nsnc3COc3ccc(S(C)(=O)=O)cc3F)CC2)n1 [Compound 1006, 5-(1-(4-((2-fluoro-4-(methylsulfonyl)phenoxy)methyl)-1,2,5-thiadiazol-3-yl)piperidin-4-yl)-3-isopropyl-1,2,4-oxadiazole] |
| -8% | CC(C)c1noc(C2CCN(c3nsnc3-c3ccc(S(C)(=O)=O)cc3)CC2)n1 [Compound 1007, 3-isopropyl-5-(1-(4-(4-(methylsulfonyl)phenyl)-1,2,5-thiadiazol-3-yl)piperidin-4-yl)-1,2,4-oxadiazole] |
| 2% | CC(C)OC(=O)N1CCN(c2nsnc2Oc2ccc(-n3cnnn3)cc2)CC1 [Compound 1010, isopropyl 4-(4-(4-(1H-tetrazol-1-yl)phenoxy)-1,2,5-thiadiazol-3-yl)piperazine-1-carboxylate] |
| 2% | CC(C)c1noc(N2CCC(COc3nsnc3OCC3CCN(c4nc(C(C)C)no4)CC3)CC2)n1 [Compound 1011, 3,4-bis((1-(3-isopropyl-1,2,4-oxadiazol-5-yl)piperidin-4-yl)methoxy)-1,2,5-thiadiazole] |
| 22% | CC(C)c1noc(C2CCN(c3nsnc3C(=O)Nc3ccc(S(C)(=O)=O)cc3F)CC2)n1 [Compound 1012, N-(2-fluoro-4-(methylsulfonyl)phenyl)-4-(4-(3-isopropyl-1,2,4-oxadiazol-5-yl)piperidin-1-yl)-1,2,5-thiadiazole-3-carboxamide] |
| 3% | CCc1cnc(N2CCC(c3nsnc3C(=O)Nc3ccc(S(C)(=O)=O)cc3F)CC2)nc1 [Compound 1015, 4-(1-(5-ethylpyrimidin-2-yl)piperidin-4-yl)-N-(2-fluoro-4-(methylsulfonyl)phenyl)-1,2,5-thiadiazole-3-carboxamide] |
| 54% | CC(C)c1noc(C2CCN(c3nn4cc(-c5ccc(S(C)(=O)=O)cc5)nc4s3)CC2)n1 [Compound 1016, 3-isopropyl-5-(1-(6-(4-(methylsulfonyl)phenyl)imidazo[2,1-b][1,3,4]thiadiazol-2-yl)piperidin-4-yl)-1,2,4-oxadiazole] |
| 39% | CC(C)c1noc(N2CCC(COc3nn4cc(-c5ccc(S(C)(=O)=O)cc5)nc4s3)CC2)n1 [Compound 1017, 3-isopropyl-5-(4-(((6-(4-(methylsulfonyl)phenyl)imidazo[2,1-b][1,3,4]thiadiazol-2-yl)oxy)methyl)piperidin-1-yl)-1,2,4-oxadiazole] |
| 20% | CC(C)c1noc(N2CCC(Oc3nn4cc(-c5ccc(S(C)(=O)=O)cc5)nc4s3)CC2)n1 [Compound 1018, 3-isopropyl-5-(4-((6-(4-(methylsulfonyl)phenyl)imidazo[2,1-b][1,3,4]thiadiazol-2-yl)oxy)piperidin-1-yl)-1,2,4-oxadiazole] |
| 11% | CS(=O)(=O)c1ccc(-c2cn3nc(C4CCN(Cc5ccccc5)CC4)sc3n2)cc1 [Compound 1019, 2-(1-benzylpiperidin-4-yl)-6-(4-(methylsulfonyl)phenyl)imidazo[2,1-b][1,3,4]thiadiazole] |
| 1% | CC(C)OC(=O)N1CCN(c2nn3cc(-c4ccc(S(C)(=O)=O)cc4)nc3s2)CC1 [Compound 1020, isopropyl 4-(6-(4-(methylsulfonyl)phenyl)imidazo[2,1-b][1,3,4]thiadiazol-2-yl)piperazine-1-carboxylate] |
| 16% | CC(C)OC(=O)N1CCC(N(C)c2nn3cc(-c4ccc(S(C)(=O)=O)cc4)nc3s2)CC1 [Compound 1022, isopropyl 4-(methyl(6-(4-(methylsulfonyl)phenyl)imidazo[2,1-b][1,3,4]thiadiazol-2-yl)amino)piperidine-1-carboxylate] |
| 0% | CCc1cnc(N2CCC(Nc3nn4cc(-c5ccc(S(C)(=O)=O)cc5)nc4s3)CC2)nc1 [Compound 1023, N-(1-(5-ethylpyrimidin-2-yl)piperidin-4-yl)-6-(4-(methylsulfonyl)phenyl)imidazo[2,1-b][1,3,4]thiadiazol-2-amine] |
| 38% | CC(C)OC(=O)N1CCC(c2nn3cc(-c4ccc(S(C)(=O)=O)cc4)nc3s2)CC1 [Compound 1024, isopropyl 4-(6-(4-(methylsulfonyl)phenyl)imidazo[2,1-b][1,3,4]thiadiazol-2-yl)piperidine-1-carboxylate] |
| 11% | CN(c1nn2cc(-c3ccc(S(C)(=O)=O)cc3)nc2s1)C1CCN(C(N)=O)CC1 [Compound 1025, 4-(methyl(6-(4-(methylsulfonyl)phenyl)imidazo[2,1-b][1,3,4]thiadiazol-2-yl)amino)piperidine-1-carboxamide] |
| 41% | CC(C)c1noc(N2CCC(c3nn4cc(-c5ccc(S(C)(=O)=O)cc5)nc4s3)CC2)n1 [Compound 1027, 3-isopropyl-5-(4-(6-(4-(methylsulfonyl)phenyl)imidazo[2,1-b][1,3,4]thiadiazol-2-yl)piperidin-1-yl)-1,2,4-oxadiazole] |
| 9% | CC(C)c1noc(N2CCC(N(C)c3nn4cc(-c5ccc(S(C)(=O)=O)cc5)nc4s3)CC2)n1 [Compound 1029, N-(1-(3-isopropyl-1,2,4-oxadiazol-5-yl)piperidin-4-yl)-N-methyl-6-(4-(methylsulfonyl)phenyl)imidazo[2,1-b][1,3,4]thiadiazol-2-amine] |
| 26% | CC(C)OC(=O)N1CCC(c2cn3nc(-c4ccc(S(C)(=O)=O)cc4)sc3n2)CC1 [Compound 1030, isopropyl 4-(2-(4-(methylsulfonyl)phenyl)imidazo[2,1-b][1,3,4]thiadiazol-6-yl)piperidine-1-carboxylate] |
| 1% | CS(=O)(=O)c1ccc(-c2cn3nc(C4CCN(S(C)(=O)=O)CC4)sc3n2)cc1 [Compound 1031, 6-(4-(methylsulfonyl)phenyl)-2-(1-(methylsulfonyl)piperidin-4-yl)imidazo[2,1-b][1,3,4]thiadiazole] |
| 41% | CC(C)c1noc(N2CCC(c3cn4nc(-c5ccc(S(C)(=O)=O)cc5)sc4n3)CC2)n1 [Compound 1032, 3-isopropyl-5-(4-(2-(4-(methylsulfonyl)phenyl)imidazo[2,1-b][1,3,4]thiadiazol-6-yl)piperidin-1-yl)-1,2,4-oxadiazole] |
| 2% | CN(C)C(=O)N1CCC(c2nn3cc(-c4ccc(S(C)(=O)=O)cc4)nc3s2)CC1 [Compound 1033, N,N-dimethyl-4-(6-(4-(methylsulfonyl)phenyl)imidazo[2,1-b][1,3,4]thiadiazol-2-yl)piperidine-1-carboxamide] |
| 53% | CC(C)OC(=O)N1CCC(c2cn3nc(-c4ccc(C(=O)N(C)C)cc4)sc3n2)CC1 [Compound 1034, isopropyl 4-(2-(4-(dimethylcarbamoyl)phenyl)imidazo[2,1-b][1,3,4]thiadiazol-6-yl)piperidine-1-carboxylate] |

Same assay, conditions: cAMP, class symbols, legend not given

| EC50 | Compound |
| --- | --- |
| A++ | CC(C)c1noc(N2CCC(C(C)Oc3nn4cc(-c5ccncc5F)nc4s3)CC2)n1 (stereo in doubt) [Compound 1064, (S)-5-(4-(1-((6-(3-fluoropyridin-4-yl)imidazo[2,1-b][1,3,4]thiadiazol-2-yl)oxy)ethyl)piperidin-1-yl)-3-isopropyl-1,2,4-oxadiazole] |
| A+ | CCc1cnc(N2CCC(C(C)Oc3nn4cc(-c5ccc(S(C)(=O)=O)nc5F)nc4s3)CC2)nc1 (stereo in doubt) [Compound 1102, 2-((S)-1-(1-(5-ethylpyrimidin-2-yl)piperidin-4-yl)ethoxy)-6-(2-fluoro-6-(methylsulfonyl)pyridin-3-yl)imidazo[2,1-b][1,3,4]thiadiazole] |
